Values after ≈ are worked out from the molar mass of the structure shown.

The term aqueous solubility denotes the concentration that dissolves in the medium under given conditions. Low readings indicate little dissolved substance, high ones much dissolved substance.

The conditions of the series: for aqueous solubility: pH 6.8.

As for `O=c1c2c(C(F)(F)F)cccc2ncn1CCc1ncc[nH]1`, the MDR1-MDCK efflux ratio came to 15.6; the intrinsic clearance, human liver microsomes was determined as 10.7 mL/min/kg; the intrinsic clearance, rat liver microsomes amounted to 257 mL/min/kg.
Consider `Cc1nc(N2CCc3c(ncn3C)C2)c2c(C)c(C)sc2n1`, for which the MDR1-MDCK efflux ratio was determined as 1.94; the intrinsic clearance, human liver microsomes stood at 94.2 mL/min/kg; the intrinsic clearance, rat liver microsomes stood at 655 mL/min/kg; the aqueous solubility stood at 47.5 µg/mL (≈ 152 µM).
As for `NC1CCCC1C(=O)N1CCC(c2c[nH]c3ncccc23)CC1` (stereo unspecified), the MDR1-MDCK efflux ratio turned out to be 6.76; the fraction unbound, human plasma came out at 0.521; the intrinsic clearance, human liver microsomes is no more than 4.74 mL/min/kg.
As to `Cc1cc(NC(=O)Cn2nc(C3CC3)ccc2=O)ccc1Cl`, the MDR1-MDCK efflux ratio came out at 0.894 and the aqueous solubility was determined as 0.86 µg/mL (≈ 2.71 µM).
As to `O=C(c1ccc2c(c1)OCO2)N1CCC(c2n[nH]c(C3CC3)n2)CC1`, the MDR1-MDCK efflux ratio was 62.7; the intrinsic clearance, human liver microsomes is no more than 4.74 mL/min/kg; the intrinsic clearance, rat liver microsomes was determined as 44.6 mL/min/kg; the aqueous solubility stood at 27 µg/mL (≈ 79.4 µM).
For `N#Cc1ccccc1N1CCC(N)CC1` the same measures were 0.562, 22.1 mL/min/kg, 2210 mL/min/kg and 54.7 µg/mL (≈ 272 µM).
For `CCCN(C)C(=O)Nc1cccc(-c2nnc3n2CCCCC3)c1`, the MDR1-MDCK efflux ratio amounted to 92.4; the intrinsic clearance, human liver microsomes is no more than 4.74 mL/min/kg; the intrinsic clearance, rat liver microsomes was determined as 44.5 mL/min/kg; the aqueous solubility came to 39.4 µg/mL (≈ 120 µM).
The matching figures for `CN(Cc1ccc(Cl)cc1)C(=O)c1ccc(-n2ccnc2)nc1`: 1.08, no more than 4.74 mL/min/kg, 46.4 mL/min/kg and 65.1 µg/mL (≈ 199 µM).
As for `CCCNC(=O)CSc1nc2cc(C)ccc2[nH]1`, the MDR1-MDCK efflux ratio stood at 2.1; the intrinsic clearance, human liver microsomes is 107 mL/min/kg; the intrinsic clearance, rat liver microsomes is 1190 mL/min/kg.
The matching figures for `CCN(C)S(=O)(=O)N(C)Cc1cnc2ccccc2c1`: 0.658, 15.1 mL/min/kg and 2320 mL/min/kg.
On to `COc1ccc(NC(C)=O)cc1NC(=O)CN(Cc1ccccc1)C(C)C`, for which the MDR1-MDCK efflux ratio stood at 2.21; the intrinsic clearance, human liver microsomes stood at 1340 mL/min/kg; the intrinsic clearance, rat liver microsomes was found to be 4200 mL/min/kg.
Regarding `CN(Cc1ccc2c(c1)OCO2)Cc1ccccc1C#N`, the MDR1-MDCK efflux ratio came to 0.351; the intrinsic clearance, human liver microsomes came out at 87.8 mL/min/kg; the intrinsic clearance, rat liver microsomes was found to be 4100 mL/min/kg; the aqueous solubility turned out to be 28.1 µg/mL (≈ 100 µM).
For `O=C(NCCc1ccc2c(c1)OCCO2)c1ccc2ccccc2n1` the same measures were 0.565, 123 mL/min/kg, 1950 mL/min/kg and 9.67 µg/mL (≈ 28.9 µM).
Turning to `CN(C)C1(CNC(=O)N2CCCC(C)(C)CC2)CCOCC1`, the MDR1-MDCK efflux ratio is 16.5; the intrinsic clearance, human liver microsomes was found to be 8.43 mL/min/kg; the intrinsic clearance, rat liver microsomes was found to be 120 mL/min/kg; the aqueous solubility was determined as 56.9 µg/mL (≈ 183 µM).
Regarding `COc1ccccc1/C=C/CN1C[C@H]2CCCN2C[C@@H]1C`, the MDR1-MDCK efflux ratio turned out to be 0.741; the intrinsic clearance, human liver microsomes was 16.8 mL/min/kg; the intrinsic clearance, rat liver microsomes was 1450 mL/min/kg.
For the molecule `COCc1cc(-c2nc(CCc3ccccc3)n[nH]2)ccc1OC`, the MDR1-MDCK efflux ratio is 2.29; the intrinsic clearance, human liver microsomes was 70.4 mL/min/kg; the intrinsic clearance, rat liver microsomes is 1100 mL/min/kg; the aqueous solubility stood at 24.9 µg/mL (≈ 77.1 µM).
For `Cc1cnn(Cc2nnc(-c3ccccc3)s2)c1` the same measures were 0.554, 44 mL/min/kg, 449 mL/min/kg and 22.5 µg/mL (≈ 87.8 µM).
`CN(NC(=O)c1ccn(-c2ccccc2)n1)c1ccccc1`: the intrinsic clearance, human liver microsomes came out at 82.3 mL/min/kg; the intrinsic clearance, rat liver microsomes worked out at 1900 mL/min/kg; the aqueous solubility stood at 58.1 µg/mL (≈ 199 µM).
On to `CC(C)(C)c1cc(NC(=O)c2cccc3cn[nH]c23)[nH]n1`, for which the MDR1-MDCK efflux ratio was 1.55; the intrinsic clearance, human liver microsomes was found to be 9.85 mL/min/kg; the intrinsic clearance, rat liver microsomes amounted to 176 mL/min/kg; the aqueous solubility was 1.78 µg/mL (≈ 6.28 µM).
Turning to `CCc1cnc(CN2C(=O)NC3(CCC3)C2=O)o1`, the MDR1-MDCK efflux ratio worked out at 3.63; the intrinsic clearance, human liver microsomes is no more than 4.74 mL/min/kg; the intrinsic clearance, rat liver microsomes is 51.9 mL/min/kg; the aqueous solubility is 32.4 µg/mL (≈ 130 µM).
`O=C(NC[C@]1(O)CCN(Cc2cscn2)C[C@H]1O)c1c[nH]cn1`: the intrinsic clearance, human liver microsomes was no more than 4.74 mL/min/kg and the intrinsic clearance, rat liver microsomes is 42.6 mL/min/kg.
The matching figures for `CCCn1cc(CNc2ncccn2)cn1`: no more than 4.74 mL/min/kg and 56.5 mL/min/kg.
With `O=S(=O)(Nc1cccc(-c2nc3ccccc3[nH]2)c1)c1ccc(Cl)cc1`, the MDR1-MDCK efflux ratio worked out at 10.7; the intrinsic clearance, human liver microsomes came to 20 mL/min/kg; the intrinsic clearance, rat liver microsomes was 2940 mL/min/kg; the aqueous solubility was found to be 4.89 µg/mL (≈ 12.7 µM).
For `Cc1nccc(-c2cccc(-n3ccnc3C(C)C)c2)n1` the same measures were 1.45, 35.4 mL/min/kg, 500 mL/min/kg and 40.4 µg/mL (≈ 145 µM).
For `COc1ccc(CNC(=O)c2cc(-c3cncc(C)c3)ncc2-c2nccs2)nc1OC`, the MDR1-MDCK efflux ratio is 9.82; the intrinsic clearance, human liver microsomes is 17.7 mL/min/kg; the intrinsic clearance, rat liver microsomes was determined as 125 mL/min/kg; the aqueous solubility was found to be 9.86 µg/mL (≈ 22 µM).
The matching figures for `COc1ccc(S(=O)(=O)CCC(=O)Nc2ccc3c(c2)N(C)C(=O)CO3)cc1`: 27.6, no more than 4.74 mL/min/kg, 109 mL/min/kg and 62.2 µg/mL (≈ 154 µM).
The matching figures for `Cc1nnc(NCC(=O)N2CCc3sccc3C2)c(C#N)c1C`: 1.31, 17.3 mL/min/kg, 267 mL/min/kg and 35.8 µg/mL (≈ 109 µM).
Consider `CCCCN(CC)c1nc(C)nc2c1c(C)c(C)n2-c1c(C)cc(C)cc1C`, for which the intrinsic clearance, human liver microsomes worked out at 198 mL/min/kg and the intrinsic clearance, rat liver microsomes worked out at 1380 mL/min/kg.
As for `Cc1nnc(NC(=O)c2nn(-c3ccc(F)cc3)c3c2CCCC3)s1`, the intrinsic clearance, human liver microsomes is 42 mL/min/kg; the intrinsic clearance, rat liver microsomes worked out at 227 mL/min/kg; the aqueous solubility was determined as 2.9 µg/mL (≈ 8.11 µM).
`Cn1c(C2CC2)nc2c1CCN(c1ncnc3ccsc13)C2` showed a fraction unbound, human plasma of 0.173; a fraction unbound, rat plasma of 0.156; an intrinsic clearance, human liver microsomes of 31.9 mL/min/kg; an intrinsic clearance, rat liver microsomes of 1090 mL/min/kg. This molecule showed an aqueous solubility of 50.4 µg/mL (≈ 162 µM).
As for `CCCC(=O)Nc1cnc(N2CCN(C)CC2)nc1`, the MDR1-MDCK efflux ratio was 1.39; the intrinsic clearance, human liver microsomes was no more than 4.74 mL/min/kg; the intrinsic clearance, rat liver microsomes turned out to be 34.4 mL/min/kg; the aqueous solubility turned out to be 35.3 µg/mL (≈ 134 µM).
As to `CN1CCCN(C(=O)Nc2cccc(OCC(F)F)n2)CC1`, the intrinsic clearance, human liver microsomes is no more than 4.74 mL/min/kg and the intrinsic clearance, rat liver microsomes was 191 mL/min/kg.
Turning to `N#CCCN(c1ncnc2sccc12)C1CC1`, the MDR1-MDCK efflux ratio came to 0.714; the intrinsic clearance, human liver microsomes came out at 11 mL/min/kg; the intrinsic clearance, rat liver microsomes turned out to be 231 mL/min/kg; the aqueous solubility was found to be 39.8 µg/mL (≈ 163 µM).
`O=C(O)c1ccc(-c2c[nH]c3ncc(-c4ccccc4)cc23)cc1C1CCCC1`: the MDR1-MDCK efflux ratio stood at 1.54 and the aqueous solubility came to 0.41 µg/mL (≈ 1.07 µM).
The molecule `Cc1cnccc1NC(=O)COc1ccccc1C#N` returned an intrinsic clearance, human liver microsomes of 12.2 mL/min/kg and an intrinsic clearance, rat liver microsomes of 302 mL/min/kg.
For `O=C(Nc1ncccc1OC(F)F)C1CCCCC1` the same measures were 61.6 mL/min/kg and 1090 mL/min/kg.
As to `Cc1cc(N2CCCC2c2cc(CCC(=O)O)cc(C)n2)ncn1` (stereo unspecified), the fraction unbound, human plasma stood at 1; the fraction unbound, rat plasma came to 1; the intrinsic clearance, human liver microsomes is no more than 4.74 mL/min/kg; the intrinsic clearance, rat liver microsomes is no more than 10.7 mL/min/kg.
In the case of `CN(Cc1sccc1Br)c1nccnc1C#N`, the aqueous solubility came out at 8.5 µg/mL (≈ 27.5 µM).
Take `CC(C)(C)n1ncc(C(=O)N2CCCn3ncnc32)c1C(F)(F)F`: the MDR1-MDCK efflux ratio came out at 0.971; the intrinsic clearance, human liver microsomes was 27.9 mL/min/kg; the intrinsic clearance, rat liver microsomes amounted to 375 mL/min/kg; the aqueous solubility was 46.2 µg/mL (≈ 135 µM).
For `CN(Cc1ccn(-c2ccccc2)n1)C(=O)c1ccc(O)nc1` the same measures were 30.8, no more than 4.74 mL/min/kg, no more than 10.7 mL/min/kg and 39.6 µg/mL (≈ 128 µM).
`CC1(CNC(=O)c2cncc(C3CCNCC3)n2)CCCO1` (stereo unspecified) registered a fraction unbound, human plasma of 0.974; a fraction unbound, rat plasma of 0.912; an intrinsic clearance, human liver microsomes of no more than 4.74 mL/min/kg; an intrinsic clearance, rat liver microsomes of 21.3 mL/min/kg.
With `CCS(=O)(=O)N(C)c1ccc(N(C)C)cc1`, the MDR1-MDCK efflux ratio is 0.579; the intrinsic clearance, human liver microsomes was no more than 4.74 mL/min/kg; the intrinsic clearance, rat liver microsomes was found to be 2980 mL/min/kg.
Regarding `Cn1cc(CN2CCCC(c3ccnc(Nc4cnccn4)c3)C2)cn1` (stereo unspecified), the MDR1-MDCK efflux ratio came out at 6.36; the intrinsic clearance, human liver microsomes turned out to be 7.74 mL/min/kg; the intrinsic clearance, rat liver microsomes turned out to be 179 mL/min/kg.
`COc1cccc(-c2nnn(-c3ncnc4sc5c(c34)CCC5)n2)c1` showed an aqueous solubility of 0.26 µg/mL (≈ 0.742 µM).
As to `Cc1cc(C)nc(NC(=O)N(C)C2CCC2)c1`, the MDR1-MDCK efflux ratio is 0.503; the intrinsic clearance, human liver microsomes was found to be 92.6 mL/min/kg; the intrinsic clearance, rat liver microsomes stood at 177 mL/min/kg; the aqueous solubility stood at 41.2 µg/mL (≈ 177 µM).
Molecule `Cc1ccc(OCc2nc3cc(N)ccc3[nH]2)cc1` gave an intrinsic clearance, human liver microsomes of no more than 4.74 mL/min/kg; an intrinsic clearance, rat liver microsomes of 49.1 mL/min/kg; an aqueous solubility of 16.8 µg/mL (≈ 66.1 µM).
On to `Cc1nc(N2CCn3ccnc3C2)c2cnn(C)c2n1`, for which the MDR1-MDCK efflux ratio turned out to be 3.63; the intrinsic clearance, human liver microsomes came to 10.5 mL/min/kg; the intrinsic clearance, rat liver microsomes is no more than 10.7 mL/min/kg; the aqueous solubility was determined as 32.9 µg/mL (≈ 122 µM).

(Values after the Biogen ADME set (Fang et al. 2023).)
